Test results published in patent US9101640B2, “Use of Danshensu, Notoginsenoside R1 or their combination in preparation of medicaments for preventing and treating diseases caused by microcirculation disorder” (Tasly Pharmaceutical Group Co., Ltd., priority 2009, dated 2015).
“Also recorded” adds a separate entry of the source.

Legend:
[1] = test system: leukocytes adhered to the mesenteric venules; test: Counting of leukocytes adhered to venular walls after I/R; assay type: in vivo; conditions: rat mesenteric I/R
Method: The rats were anesthetized by intraperitoneal injection of pentobarbital sodium (30 mg/kg body weight (BW)). PE venous cannulas (#3) were cannulated into the right jugular of the rats and detained. The abdomen of each rat was incised in a length of 20-30 mm along the midline. The ileum near the ileocecal junctions was gently taken out and unfolded onto the object stage mounted with glass slides. The unfolded mesenteries were continuously dripped with Krebs-Ringer buffering solution at 37° C. The microcirculatory dynamics of the mesenteries was observed under white light (12V, 100 W) using an inverted biomicroscope (Diaphot TMD-2S, Nikon, Tokyo) placed in the thermostat at 37° C. Observation sites were selected under 20× object lens, and a video recording system with a time-displaying function was used to record what had been observed on S-VHS tape and preserved. […] Normal saline was administrated at 20 min before ischemia until the end of the observation by continuously intravenous drip via jugular at a dosage of 5 mg/kg/h. PE cannulas were used to ligate non-circulatory mesenteric arteries and veins, so as to observe the arteries and veins for 10 min, and then the ligation was lifted. Time was adjusted to zero and the microcirculatory dynamics under the same visual field was continuously observed for 60 min.
DLA was administrated at 20 min before ischemia until the end of the observation by continuously intravenous drip via jugular at a dosage of 5 mg/kg/h.
R1 was administrated at 20 min before ischemia until the end of the observation by continuously intravenous drip via jugular at a dosage of 5 mg/kg/h.
The combination of DLA and R1 in a weight ratio of 4:1 was administrated at 20 min before ischemia until the end of the observation by continuously intravenous drip via jugular at a dosage of 5 mg/kg/h.
The combination of DLA and R1 in a weight ratio of 1:1 was administrated at 20 min before ischemia until the end of the observation by continuously intravenous drip via jugular at a dosage of 5 mg/kg/h. […]
Wherein, 6 rats in each group were taken out, these rats were used for observing the following aspects: the venular diameters; leukocytes rolling, adhesion, and emigration and DHR fluorescence intensities of the venular walls. […]
Microcirculatory dynamics was continuously recorded using an inverted biomicroscope […] recording system (CC-090, Flovel, Tokyo) and SIT fluorescent camera (C-2400-08, Hamamatsu Photonics, Hamamatsu).
The leukocytes adhered to the venules which stayed at one site on the venular walls for at least 30 s the adherent leukocytes) was counted from the replayed images at the following time points: before ischemia, and 1 min, 10 min, 20 min, 30 min, 40 min, 50 min and 60 min after the beginning of the reperfusion. […]

[2] = test system: mast cells in the mesenteric interstitial substance; test: Percentage of mast cells degranulation after I/R (toluidine blue); assay type: in vivo; conditions: 60 min of reperfusion, rat
[3] = post-administration, 5 mg/kg/h continuous i.v. drip from 20 min after ischemia (DLA: 10 min after I/R)
[4] = pre-administration, 5 mg/kg/h continuous i.v. drip from 20 min before ischemia

Structure (SMILES)	inhibition of the increase in the number of leukocytes adhered to the mesenteric venules caused by I/R [1, 3]	inhibition of the increase in the number of leukocytes adhered to the mesenteric venules caused by I/R [1, 4]	inhibition of the increase in the percentage of mast cells degranulation caused by I/R [2, 3]	inhibition of the increase in the percentage of mast cells degranulation caused by I/R [2, 4]
O=C(O)C(O)Cc1ccc(O)c(O)c1 (centres unmarked) [DLA, 3,4-dihydroxyphenyl lactic acid]	had significant inhibitory effects; also recorded: has the same effects as those of the pre-administration	had significant inhibitory effects; also recorded: can inhibit	had no significant inhibitory effects; also recorded: without the significant inhibition	can significantly inhibit
CC(C)=CCC[C@](C)(O[C@@H]1O[C@H](CO)[C@@H](O)[C@H](O)[C@H]1O)[C@H]1CC[C@]2(C)[C@@H]1[C@H](O)C[C@@H]1[C@@]3(C)CC[C@H](O)C(C)(C)[C@@H]3[C@@H](O[C@@H]3O[C@H](CO)[C@@H](O)[C@H](O)[C@H]3O[C@@H]3OC[C@@H](O)[C@H](O)[C@H]3O)C[C@]12C [R1, Notoginsenoside R1]	had significant inhibitory effects; also recorded: can inhibit	had significant inhibitory effects; also recorded: can inhibit	can significantly inhibit	can significantly inhibit
